Assay: Release of compound 1 in artificial tear medium from dialysis tubes into artificial tear fluid, quantified via HPLC
Type: physicochemical
Settings: room temperature, 100 rpm
Procedure: 0.5 mL of unformulated compound 1 dissolved in artificial tear medium (i.e., equivalent to physiological buffer solution/PBS) was filled into dialysis tubes (Spectra/Por® Biotech CE MWCO 100-500, 10 mm), sealed and immersed into containers filled with 5 mL artificial tear fluid (ATF) serving as release medium (Table 2). The samples were incubated at room temperature and shaken at 100 rpm. After 0 hours, 0.5 hours, 1 hour, 2 hours, 4 hours and 24 hours, samples were withdrawn and the amount of released compound 1 was quantified via HPLC.

Compound: CC/C=C\C[C@H](O)\C=C/C=C/C=C/[C@H](O)C/C=C\C/C=C\CCC(=O)[O-].[Na+] [Compound 1, Sodium (4Z,7Z,10R,11E,13E,15Z,17S, 19Z)-10,17-dihydroxydocosa-4,7,11,13,15,19-hexaenoate]
- Release (%) (time point 0.5 h): 0.8%
- Release (%) (time point 1 h): 2%
- Release (%) (time point 2 h): 7%
- Release (%) (time point 4 h): 17%
- Release (%) (time point 24 h): 59%
